Measured values as given in ChEMBL document CHEMBL4334464, “From Phenylthiazoles to Phenylpyrazoles: Broadening the Antibacterial Spectrum toward Carbapenem-Resistant Bacteria” (J Med Chem, 2019).
Values after ≈ are worked out from the molar mass of the structure shown. Active and inactive are the calls of the source. No cut-off for these calls is given here.

These molecules were tested on Escherichia coli (assay: Ratio of MBC to MIC for Escherichia coli ATCC 1411 clinical isolates). Conditions: not given.
Assay type: functional
With `CCCCCC#Cc1ccc(-n2ncc(/C(C)=N/NC(=N)N)c2C)cc1` the Ratio was “>=1”.

What follows are molecules tested on Pseudomonas aeruginosa (assay: Antibacterial activity against Pseudomonas aeruginosa ATCC 15442 clinical isolates after 18 to 20 hrs in aerobic condition by CLSI-based broth microdilution assay). Conditions: not given.
Assay type: functional
Work on `CCCCCC#Cc1ccc(-n2ncc(/C(C)=N/NC(=N)N)c2C)cc1` yielded an MIC of 32 µg/mL (≈ 91.3 µM).

The molecules below were run on Escherichia coli (assay: Ratio of MBC to MIC for Escherichia coli BW25113 clinical isolates). Conditions: not given.
Assay type: functional
In the case of `CCCCCC#Cc1ccc(-n2ncc(/C(C)=N/NC(=N)N)c2C)cc1`, the Ratio was “>=1”.

These molecules were tested on Pseudomonas aeruginosa (assay: Antibacterial activity against carbapenem-resistant Pseudomonas aeruginosa ATCC 1744 clinical isolates after 18 to 20 hrs in aerobic condition by CLSI-based broth microdilution assay). Conditions: not given.
Assay type: functional
`CCCCCC#Cc1ccc(-n2ncc(/C(C)=N/NC(=N)N)c2C)cc1` gave an MIC of 32 µg/mL (≈ 91.3 µM).

The molecules below were run on Streptococcus pneumoniae (assay: Ratio of MBC to MIC for […] Streptococcus pneumoniae ATCC 700677 clinical isolates). Conditions: not given.
Assay type: functional
`CCCCCC#Cc1ccc(-n2ncc(/C(C)=N/NC(=N)N)c2C)cc1` gave a Ratio of under 3.

Each molecule was assayed on Escherichia coli (assay: Antimicrobial activity against Escherichia coli JW55031 harboring deltatolC mutant after 18 to 20 hrs in aerobic condition by CLSI protocol based broth microdilution assay). Conditions: not given.
Assay type: functional
In the case of `CCCCCC#Cc1ccc(-n2ncc(/C(C)=N/NC(=N)N)c2C)cc1`, the MIC was 4 µg/mL (≈ 11.4 µM).

Each molecule was assayed on Listeria monocytogenes (assay: Ratio of MBC to MIC for Listeria monocytogenes ATCC 19111 clinical isolates). Conditions: not given.
Assay type: functional
`CCCCCC#Cc1ccc(-n2ncc(/C(C)=N/NC(=N)N)c2C)cc1` was tested, and the Ratio was under 3.

Each molecule was assayed on Enterococcus faecalis (assay: Ratio of MBC to MIC for vancomycin-resistant Enterococcus faecalis ATCC 51299 clinical isolates). Conditions: not given.
Assay type: functional
With `CCCCCC#Cc1ccc(-n2ncc(/C(C)=N/NC(=N)N)c2C)cc1` the Ratio was under 3.

Each molecule was assayed on Streptococcus pneumoniae (assay: Antibacterial activity against cephalosporin-resistant Streptococcus pneumoniae ATCC 51916 clinical isolates after 18 to 20 hrs by CLSI-based broth microdilution assay). Conditions: not given.
Assay type: functional
In the case of `CCCCCC#Cc1ccc(-n2ncc(/C(C)=N/NC(=N)N)c2C)cc1`, the MIC was 2 µg/mL (≈ 5.71 µM).

These molecules were tested on Clostridioides difficile (assay: Ratio of MBC to MIC for Clostridium difficile ATCC BAA 1870). Conditions: not given.
Assay type: functional
`CCCCCC#Cc1ccc(-n2ncc(/C(C)=N/NC(=N)N)c2C)cc1` gave a Ratio of under 3.

Each molecule was assayed on Staphylococcus aureus (assay: Antibacterial activity against methicillin-resistant Staphylococcus aureus NRS384-USA300 clinical isolates after 18 to 20 hrs in aerobic condition by CLSI protocol based broth microdilution assay). Conditions: not given.
Assay type: functional
`CCCCCC#Cc1ccc(-n2ncc(/C(C)=N/NC(=N)N)c2C)cc1` gave an MIC of 2 µg/mL (≈ 5.71 µM).

Each molecule was assayed on Acinetobacter baumannii (assay: Antibacterial activity against Acinetobacter baumannii NR 17786 clinical isolates after 18 to 20 hrs in aerobic condition by CLSI-based broth microdilution assay). Conditions: not given.
Assay type: functional
Work on `CCCCCC#Cc1ccc(-n2ncc(/C(C)=N/NC(=N)N)c2C)cc1` yielded an MIC of 8 µg/mL (≈ 22.8 µM).

What follows are molecules tested against T1, Ditrans,polycis-undecaprenyl-diphosphate synthase ((2E,6E)-farnesyl-diphosphate specific) (Escherichia coli (strain K12)) (UniProt P60472) (assay: Inhibition of Escherichia coli UPPS using FPP/IPP as substrate preincubated for 30 mins followed by substrates addition and measured after 30 mins by malachite green reagent based assay). Conditions: not given.
T1 sequence (whole entry): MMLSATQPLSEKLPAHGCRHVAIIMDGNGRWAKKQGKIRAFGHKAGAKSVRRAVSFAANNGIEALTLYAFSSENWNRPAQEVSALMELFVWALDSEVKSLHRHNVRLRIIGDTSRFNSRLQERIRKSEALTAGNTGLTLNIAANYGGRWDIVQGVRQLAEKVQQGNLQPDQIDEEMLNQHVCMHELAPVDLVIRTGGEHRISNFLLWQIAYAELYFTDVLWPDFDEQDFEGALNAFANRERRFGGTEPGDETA
With `CCCCCC#Cc1ccc(-n2ncc(/C(C)=N/NC(=N)N)c2C)cc1` the inhibition was “inactive”.

The molecules below were run on Escherichia coli (assay: microbe, parasite or virus in culture). Conditions: ATCC 1411.
Description: Antibacterial activity against Escherichia coli ATCC 1411 clinical isolates after 18 to 20 hrs in aerobic condition by CLSI-based broth microdilution assay
With `CCCCCC#Cc1ccc(-n2ncc(/C(C)=N/NC(=N)N)c2C)cc1` the MIC was 16 µg/mL (≈ 45.7 µM).

The molecules below were run on Pseudomonas aeruginosa (assay: Ratio of MBC to MIC for Pseudomonas aeruginosa ATCC 9027 clinical isolates). Conditions: not given.
Assay type: functional
For `CCCCCC#Cc1ccc(-n2ncc(/C(C)=N/NC(=N)N)c2C)cc1`, the Ratio was “>=1”.

What follows are molecules tested on Pseudomonas aeruginosa (assay: microbe, parasite or virus in culture). Conditions: ATCC 25619.
Description: Antibacterial activity against Pseudomonas aeruginosa ATCC 25619 clinical isolates after 18 to 20 hrs in aerobic condition by CLSI-based broth microdilution assay
With `CCCCCC#Cc1ccc(-n2ncc(/C(C)=N/NC(=N)N)c2C)cc1` the MIC was 32 µg/mL (≈ 91.3 µM).

These molecules were tested on Clostridioides difficile (assay: Antibacterial activity against Clostridium difficile ATCC BAA 1870 incubated for 48 hrs in anaerobic condition by CLSI-based broth microdilution assay). Conditions: ATCC BAA 1870, 48 h.
Assay type: functional
`CCCCCC#Cc1ccc(-n2ncc(/C(C)=N/NC(=N)N)c2C)cc1` gave an MIC of 4 µg/mL (≈ 11.4 µM).

Each molecule was assayed on Klebsiella pneumoniae (assay: Antibacterial activity against carbapenem-resistant Klebsiella pneumoniae ATCC BAA-1705 clinical isolates after 18 to 20 hrs in aerobic condition by CLSI-based broth microdilution assay). Conditions: not given.
Assay type: functional
For `CCCCCC#Cc1ccc(-n2ncc(/C(C)=N/NC(=N)N)c2C)cc1`, the MIC was 16 µg/mL (≈ 45.7 µM).

The molecules below were run on Klebsiella pneumoniae (assay: Antibacterial activity against Klebsiella pneumoniae BAA-1706 clinical isolates after 18 to 20 hrs in aerobic condition by CLSI-based broth microdilution assay). Conditions: not given.
Assay type: functional
`CCCCCC#Cc1ccc(-n2ncc(/C(C)=N/NC(=N)N)c2C)cc1` was tested, and the MIC was 8 µg/mL (≈ 22.8 µM).

What follows are molecules tested on Klebsiella pneumoniae (assay: Antibacterial activity against carbapenem-resistant Klebsiella pneumoniae ATCC BAA-2146 clinical isolates after 18 to 20 hrs in aerobic condition by CLSI-based broth microdilution assay). Conditions: not given.
Assay type: functional
Molecule `CCCCCC#Cc1ccc(-n2ncc(/C(C)=N/NC(=N)N)c2C)cc1` has an MIC of 32 µg/mL (≈ 91.3 µM).

These molecules were tested on Salmonella enterica (assay: Antibacterial activity against Salmonella enterica NR-170 clinical isolates after 18 to 20 hrs in aerobic condition by CLSI-based broth microdilution assay). Conditions: not given.
Assay type: functional
In the case of `CCCCCC#Cc1ccc(-n2ncc(/C(C)=N/NC(=N)N)c2C)cc1`, the MIC was 8 µg/mL (≈ 22.8 µM).

What follows are molecules tested on Enterococcus faecium (assay: Ratio of MBC to MIC for vancomycin-resistant Enterococcus faecium ATCC 700221 clinical isolates). Conditions: not given.
Assay type: functional
Molecule `CCCCCC#Cc1ccc(-n2ncc(/C(C)=N/NC(=N)N)c2C)cc1` has a Ratio of under 3.

Each molecule was assayed on Salmonella enteritidis (assay: Ratio of MBC to MIC for Salmonella enteritidis ATCC 14028 clinical isolates). Conditions: not given.
Assay type: functional, Salmonella enterica subsp. enterica serovar Enteritidis
`CCCCCC#Cc1ccc(-n2ncc(/C(C)=N/NC(=N)N)c2C)cc1` was tested, and the Ratio was “>=1”.

What follows are molecules tested on Staphylococcus aureus (assay: Bactericidal activity against methicillin-resistant Staphylococcus aureus NRS123-USA400 clinical isolates at 5 times MIC incubated over 24 hrs followed by replating on tryptic soy agar plate and further incubated for 18 to 20 hrs by time kill assay). Conditions: not given.
Assay type: functional, organism-based
In the case of `CCCCCC#Cc1ccc(-n2ncc(/C(C)=N/NC(=N)N)c2C)cc1`, the Activity was “Active”.

The molecules below were run on Streptococcus pneumoniae (assay: Antibacterial activity against methicillin-resistant Streptococcus pneumoniae ATCC 700677 clinical isolates after 18 to 20 hrs by CLSI-based broth microdilution assay). Conditions: not given.
Assay type: functional
With `CCCCCC#Cc1ccc(-n2ncc(/C(C)=N/NC(=N)N)c2C)cc1` the MIC was 2 µg/mL (≈ 5.71 µM).

What follows are molecules tested on Staphylococcus aureus (assay: Antibacterial activity against Methicillin-resistant Staphylococcus aureus NRS123-USA400 clinical isolates after 18 to 20 hrs in aerobic condition by CLSI protocol based broth microdilution assay). Conditions: not given.
Assay type: functional
For `CCCCCC#Cc1ccc(-n2ncc(/C(C)=N/NC(=N)N)c2C)cc1`, the MIC was 2 µg/mL (≈ 5.71 µM).

What follows are molecules tested on Acinetobacter baumannii (assay: microbe, parasite or virus in culture). Conditions: ATCC BAA 1747.
Description: Antibacterial activity against Acinetobacter baumannii ATCC BAA 1747 after 18 to 20 hrs in aerobic condition by CLSI-based broth microdilution assay
Molecule `CCCCCC#Cc1ccc(-n2ncc(/C(C)=N/NC(=N)N)c2C)cc1` has an MIC of 4 µg/mL (≈ 11.4 µM).

The molecules below were run on Escherichia coli (assay: Antibacterial activity against Escherichia coli ATCC 25922 clinical isolates after 18 to 20 hrs in aerobic condition by CLSI-based broth microdilution assay). Conditions: not given.
Assay type: functional
`CCCCCC#Cc1ccc(-n2ncc(/C(C)=N/NC(=N)N)c2C)cc1` was tested, and the MIC was 8 µg/mL (≈ 22.8 µM).

The molecules below were run on Acinetobacter baumannii (assay: Ratio of MBC to MIC for Acinetobacter baumannii ATCC BAA 1141 clinical isolates). Conditions: not given.
Assay type: functional
In the case of `CCCCCC#Cc1ccc(-n2ncc(/C(C)=N/NC(=N)N)c2C)cc1`, the Ratio was “>=1”.

The molecules below were run on Staphylococcus epidermidis (assay: Ratio of MBC to MIC for Staphylococcus epidermidis NRS101 clinical isolates). Conditions: not given.
Assay type: functional
`CCCCCC#Cc1ccc(-n2ncc(/C(C)=N/NC(=N)N)c2C)cc1` showed a Ratio of under 3.

What follows are molecules tested on Staphylococcus aureus (assay: Antibacterial activity against Methicillin-sensitive Staphylococcus aureus NRS107 clinical isolates after 18 to 20 hrs in aerobic condition by CLSI protocol based broth microdilution assay). Conditions: not given.
Assay type: functional
With `CCCCCC#Cc1ccc(-n2ncc(/C(C)=N/NC(=N)N)c2C)cc1` the MIC was 2 µg/mL (≈ 5.71 µM).
